# Experimental data: US6525059B1, “Substituted pyrazoles as p38 kinase inhibitors” (G. D. Searle & Company, priority 1998, dated 2003)
# Like-named read-outs stand apart in the source and are kept apart here.
# Columns and labels:
# human p38 kinase alpha = target: T1, human p38 kinase alpha (Homo sapiens, UniProt Q16539); assay: p38 kinase in vitro assay, phosphorylation of biotinylated PHAS-I with gamma 32P-ATP; assay type: biochemical; conditions: for inhibition at 1 µM: read-out: P38 alpha kinase % inhib @ conc.
# T1 construct: The coding region of the human p38a cDNA was obtained by PCR-amplification from RNA isolated from the human monocyte cell line THP.1; GST (N); made in house; host or cells: E. coli DH10B
# T1 sequence (Q16539 whole entry): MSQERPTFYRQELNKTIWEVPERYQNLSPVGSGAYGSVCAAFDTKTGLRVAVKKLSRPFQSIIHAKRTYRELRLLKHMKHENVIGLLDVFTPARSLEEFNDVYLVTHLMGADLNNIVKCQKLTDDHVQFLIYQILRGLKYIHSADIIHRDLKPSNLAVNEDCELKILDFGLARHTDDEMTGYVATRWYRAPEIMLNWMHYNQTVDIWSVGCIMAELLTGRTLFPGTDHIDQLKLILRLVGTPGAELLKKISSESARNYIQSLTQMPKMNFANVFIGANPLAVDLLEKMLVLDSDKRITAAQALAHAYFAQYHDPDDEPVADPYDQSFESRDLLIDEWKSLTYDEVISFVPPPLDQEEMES
# Procedure, shortened: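 Radiometric filter-capture read-out: streptavidin plates trap biotin-PHAS-I labelled by activated (MKK6) human p38α from γ-32P-ATP. Buffer 25 mM HEPES pH 7.5, 10 mM magnesium acetate, 50 μM cold ATP; reactions 1 h or overnight at 30 °C; inhibitors 10-fold dilutions 100 to 0.001 μM, triplicates, 1% DMSO.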
# TNF-α = assay: LPS stimulation of TNF production by U937 cells; assay type: cell-based, human; conditions: for inhibition at 1 µM: U-937, @ 1.0 uM, read-out: U937 Cell % inhib @ conc.
# Description: Fifty million cells in 100 ml media were induced to terminal monocytic differentiation by 24 hour incubation with 20 ng/ml phorbol 12-myristate 13-acetate (Sigma). The cells were washed by centrifugation (200×g for 5 min) and resuspended in 100 ml fresh medium. After 24-48 hours, the cells were harvested, centrifuged, and resuspended in culture medium at 2 million cells/ml.
# Compounds were prepared as 10 mM stock solutions in DMSO and diluted in culture medium to yield a final DMSO concentration of 0.1% in the cell assay. LPS (E coli, 100 ng/ml final concentration) was then added at a volume of 0.02 ml. After 4 hour incubation at 37° C., the amount of TNF-α released in the culture medium was quantitated by ELISA. Inhibitory potency is expressed as IC50 (μM).
# In vitro whole cell assay for measuring the ability of the compounds to inhibit TNF production in human U937 cells stimulated with LPS are shown in the column identified as: […]
# [1] = p38α in vitro, PHAS-I assay procedure, read-out: p38^1 IC50
# [2] = Homo sapiens, U-937, LPS-stimulated U937 cells, read-out: U937 IC50
# [3] = read-out: P38 alpha kinase IC50
# [4] = Homo sapiens, U-937, TNF production, LPS-stimulated human U937 cells, read-out: U937 Cell IC50
IC50 (human p38 kinase alpha; [1]) [nM],IC50 (TNF-α; [2]) [nM],inhibition at 1 µM (human p38 kinase alpha; @ 1.0 uM) [%],Compound,inhibition at 1 µM (TNF-α; Homo sapiens) [%],other results
,,92,O=C(NCc1[nH]nc(-c2ccc(F)cc2)c1-c1ccncc1)c1ccc(Cl)nc1 [Example B-0052],15,
,,93,Cc1onc(-c2c(F)cccc2Cl)c1C(=O)NCc1[nH]nc(-c2ccc(F)cc2)c1-c1ccncc1 [Example B-0055],,IC50 (TNF-α; [4]): > 1000 nM
,,96,Cc1onc(-c2ccccc2Cl)c1C(=O)NCc1[nH]nc(-c2ccc(F)cc2)c1-c1ccncc1 [Example B-0056],21,
,,96,CCCC(CCC)C(=O)NCc1[nH]nc(-c2ccc(F)cc2)c1-c1ccncc1 [Example B-0057],29,
,,79,O=C(NCc1[nH]nc(-c2ccc(F)cc2)c1-c1ccncc1)c1sc2ccccc2c1Cl [Example B-0058],18,
,,73,O=C(NCc1[nH]nc(-c2ccc(F)cc2)c1-c1ccncc1)c1cccc(OC(F)(F)F)c1 [Example B-0060],22,
,,90,CCCCCCCC(=O)NCc1[nH]nc(-c2ccc(F)cc2)c1-c1ccncc1 [Example B-0064],4,
,,94,O=C(NCc1[nH]nc(-c2ccc(F)cc2)c1-c1ccncc1)C1CCC1 [Example B-0066],28,
,,72,COc1ccc(C(=O)NCc2[nH]nc(-c3ccc(F)cc3)c2-c2ccncc2)cc1OC [Example B-0068],22,
,,86,O=C(NCc1[nH]nc(-c2ccc(F)cc2)c1-c1ccncc1)c1ccc(Cl)c(Cl)c1 [Example B-0071],31,
,,91,O=C(NCc1[nH]nc(-c2ccc(F)cc2)c1-c1ccncc1)c1cccc(Br)c1 [Example B-0073],24,
,,58,O=C(CCc1ccccc1)NCc1[nH]nc(-c2ccc(F)cc2)c1-c1ccncc1 [Example B-0076],21,
,,80,COC(=O)CCCC(=O)NCc1[nH]nc(-c2ccc(F)cc2)c1-c1ccncc1 [Example B-0078],20,
,,93,O=C(NCc1[nH]nc(-c2ccc(F)cc2)c1-c1ccncc1)C1CCCC1 [Example B-0079],13,
,,92,CSCCC(=O)NCc1[nH]nc(-c2ccc(F)cc2)c1-c1ccncc1 [Example B-0081],13,
,,83,COc1cc(C(=O)NCc2[nH]nc(-c3ccc(F)cc3)c2-c2ccncc2)cc(OC)c1OC [Example B-0085],21,
,,96,COC(=O)CCCCCCC(=O)NCc1[nH]nc(-c2ccc(F)cc2)c1-c1ccncc1 [Example B-0088],9,
,,91,CCOC(=O)CCCC(=O)NCc1[nH]nc(-c2ccc(F)cc2)c1-c1ccncc1 [Example B-0096],22,
,,43,CC(C)(C)c1ccc(S(=O)(=O)NCc2[nH]nc(-c3ccc(F)cc3)c2-c2ccncc2)cc1 [Example B-0099],,IC50 (TNF-α; [4]): > 1000 nM
,,75,CCCCS(=O)(=O)NCc1[nH]nc(-c2ccc(F)cc2)c1-c1ccncc1 [Example B-0100],,IC50 (TNF-α; [4]): 5000 nM
,,81,O=[N+]([O-])c1cc(S(=O)(=O)NCc2[nH]nc(-c3ccc(F)cc3)c2-c2ccncc2)ccc1Cl [Example B-0102],15,

# More lines, now with the values behind:
Compound,IC50 (human p38 kinase alpha; [1]) [nM],IC50 (TNF-α; [2]) [nM],inhibition at 1 µM (human p38 kinase alpha; @ 1.0 uM) [%],inhibition at 1 µM (TNF-α; Homo sapiens) [%],other results
"Cc1cccc(-c2n[nH]cc2-c2ccnc(C)c2)c1 [Example A-143, 2-methyl-4-[3-(3-methylphenyl)-1H-pyrazol-4-yl]pyridine]",,,,,"IC50 (human p38 kinase alpha; activated human p38 kinase alpha, PHAS-I substrate, 50 μM unlabeled ATP, read-out: p38 kinase IC50): < 100 nM; IC50 (TNF-α; Homo sapiens, U-937, LPS-stimulated U937 cells, read-out: U937 Cell Assay IC50): 301 nM"
"CN(C)CCn1cc(-c2ccnc(NCc3ccc(F)cc3)c2)c(-c2ccc(F)cc2)n1 [Example A-274, 4-[1-[2-(dimethylamino)ethyl]-3-(4-fluorophenyl)-1H-pyrazol-4-yl]-N-[(4-fluorophenyl)methyl]-2-pyridinamine]",< 100,920,,,
"CN(C)CCn1cc(-c2ccnc(CCc3ccc(F)cc3)c2)c(-c2ccc(F)cc2)n1 [Example A-275, 3-(4-fluorophenyl)-4-[2-[2-(4-fluorophenyl)ethyl]-4-pyridinyl]-N,N-dimethyl-1H-pyrazole-1-ethanamine]",10100,> 10000,,,
"CCN(CC)CCn1cc(-c2ccnc(F)c2)c(-c2ccc(F)cc2)n1 [Example A-278, N,N-diethyl-3-(4-fluorophenyl)-4-(2-fluoro-4-pyridinyl)-1H-pyrazole-1-ethanamine]",285,2300,,,
"CCN(CC)CCn1cc(-c2ccnc(NCc3ccc(F)cc3)c2)c(-c2ccc(F)cc2)n1 [Example A-279, 4-[1-[2-(diethylamino)ethyl]-3-(4-fluorophenyl)-1H-pyrazol-4-yl]-N-[(4-fluorophenyl)methyl]-2-pyridinamine]",5,700,,,
"OCCCNc1cc(-c2c[nH]nc2-c2ccc(F)cc2)ccn1 [Example A-282, 3-[[4-[3-(4-fluorophenyl)-1H-pyrazol-4-yl]-2-pyridinyl]amino]-1-propanol]",45,97.3,,,
"CCN(CC)CCn1cc(-c2ccncc2)c(-c2ccc(F)cc2)n1 [Example A-284, N,N-diethyl-3-(4-fluorophenyl)-4-(4-pyridinyl)-1H-pyrazole-1-ethanamine]",980,509,,,
"Fc1ccc(-c2n[nH]c(NCCCN3CCOCC3)c2-c2ccncc2)cc1 [Example A-286, N-[5-(4-fluorophenyl)-4-(4-pyridinyl)-1H-pyrazol-3-yl]-4-morpholinepropanamine]",57,90,,,
"CN(C)CCCNc1[nH]nc(-c2ccc(F)cc2)c1-c1ccncc1 [Example A-287, N′-[5-(4-fluorophenyl)-4-(4-pyridinyl)-1H-pyrazol-3-yl]-N,N-dimethyl-1,3-propanediamine]",41,270,,,
"C#CCNc1[nH]nc(-c2ccc(F)cc2)c1-c1ccncc1 [Example A-288, 5-(4-fluorophenyl)-N-2-propynyl-4-(4-pyridinyl)-1H-pyrazol-3-amine]",17,300,,,
Fc1ccc(-c2n[nH]cc2-c2ccnc3ccccc23)cc1 [Example A-291],388,1130,,,
"COC(=O)CNc1n[nH]c(-c2ccc(F)cc2)c1-c1ccncc1 [Example A-292, N-[5-(4-fluorophenyl)-4-(4-pyridinyl)-1H-pyrazol-3-yl]glycine methyl ester]",1150,> 10000,,,
"C#CCn1cc(-c2ccncc2)c(-c2ccc(F)cc2)n1 [Example A-294, 4-[3-(4-fluorophenyl)-1-(2-propynyl)-1H-pyrazol-4-yl]pyridine]",15,500,,,
"C#CCn1ncc(-c2ccncc2)c1-c1ccc(F)cc1 [Example A-295, 4-[5-(4-fluorophenyl)-1-(2-propynyl)-1H-pyrazol-4-yl]pyridine]",7660,> 10000,,,
"Clc1ccc(-c2n[nH]cc2-c2ccncc2)cc1Cl [Example A-297, 4-[3-(3,4-dichlorophenyl)-1H-pyrazol-4-yl]pyridine]",520,170,,,
CC(C)COC(=O)NCc1[nH]nc(-c2ccc(F)cc2)c1-c1ccncc1 [Example B-0009],,,,,IC50 (human p38 kinase alpha; [3]): 40 nM; IC50 (TNF-α; [4]): 720 nM
CC(C)C(=O)NCc1[nH]nc(-c2ccc(F)cc2)c1-c1ccncc1 [Example B-0010],,,,,IC50 (human p38 kinase alpha; [3]): 520 nM; IC50 (TNF-α; [4]): 650 nM
COc1ccccc1C(=O)NCc1[nH]nc(-c2ccc(F)cc2)c1-c1ccncc1 [Example B-0011],,,,,IC50 (human p38 kinase alpha; [3]): 30 nM; IC50 (TNF-α; [4]): 4470 nM
C=CCOC(=O)NCc1[nH]nc(-c2ccc(F)cc2)c1-c1ccncc1 [Example B-0033],,,,,"P38 alpha kinase % inhib @ conc. (human p38 kinase alpha; @ 1.0 uM): 97.0% @ 1.0 uM; IC50 (TNF-α; TNF production, LPS-stimulated human U937 cells, read-out: U937 Cell IC50): 10000 nM"
CC(=O)OC(C)(C)C(=O)NCc1[nH]nc(-c2ccc(F)cc2)c1-c1ccncc1 [Example B-0043],,,,,IC50 (human p38 kinase alpha; [3]): 220 nM; IC50 (TNF-α; [4]): 540 nM
CC(=O)NCc1[nH]nc(-c2ccc(F)cc2)c1-c1ccncc1 [Example B-0044],,,,,IC50 (human p38 kinase alpha; [3]): 140 nM; IC50 (TNF-α; [4]): 190 nM
COC(=O)CCC(=O)NCc1[nH]nc(-c2ccc(F)cc2)c1-c1ccncc1 [Example B-0077],,,,,IC50 (human p38 kinase alpha; [3]): 800 nM; IC50 (TNF-α; [4]): 10000 nM
CC(=O)O[C@@H](C)C(=O)NCc1[nH]nc(-c2ccc(F)cc2)c1-c1ccncc1 [Example B-0083],,,,,IC50 (human p38 kinase alpha; [3]): 220 nM; IC50 (TNF-α; [4]): 6510 nM
O=C(NCc1[nH]nc(-c2ccc(F)cc2)c1-c1ccncc1)C1CC1 [Example B-0089],,,,,IC50 (human p38 kinase alpha; [3]): 40 nM; IC50 (TNF-α; [4]): 3330 nM
